Assay results from article PMC10812672, “Short Antimicrobial Peptide Derived from the Venom Gland Transcriptome of Pamphobeteus verdolaga Increases Gentamicin Susceptibility of Multidrug-Resistant Klebsiella pneumoniae” (Antibiotics, 2023).
Ends that are not written are not given here.

Tested on: K. pneumoniae ATCC® BAA-1705
Type: cell-based, Klebsiella pneumoniae
Procedure: The nine AMPs identified in the initial screening were evaluated at concentrations between 1.56–200 µM, against E. coli ATCC® 25922, S. aureus ATCC® 29213, E. faecalis ATCC® 49532, P. aeruginosa ATCC® 9027, and K. pneumoniae ATCC® BAA-1705 (Supplementary Figures S2–S6). […] Only PvAMP66 and PvAMP172 reached the MBC for S. aureus at 50 µM and 100 µM, respectively (Table 2).
The evaluation of the antimicrobial activity of the peptides was conducted using the CLSI’s broth microdilution method for bacterial susceptibility testing. For the screening phase, peptides were evaluated at a single 30 μM concentration, in triplicate and in three independent assays, against the E. coli ATCC® 8739, E. coli ATCC® 25922, S. aureus ATCC® 6538, or S. aureus ATCC® 29213 reference USP and CLSI strains. […] Following this, the bacteria were suspended in Mueller-Hinton broth up to a concentration of approximately 1.50 × 10^8 CFU/mL, as measured by optical density at 600 nm between 0.06 to 0.11 (0.5 McFarland standard), in a Multiskan SkyHigh spectrophotometer (ThermoFisher Scientific, Waltham, MA, USA). […] The plate was incubated for 24 h at 37 °C (BE 500, Memmert GmbH, Büchenbach, Germany) and optical density was measured at 600 nm in a Multiskan SkyHigh spectrophotometer (ThermoFisher Scientific, Waltham, MI, USA). […]

WKKIKKFF-NH2 [PvAMP66]
MIC (1.56–200 µM, 24 h 37 °C, visual inspection): 100 µM
IC50 (growth inhibition OD600, 95% confidence interval in parentheses): 45.5 µM
